Results taken from patent publication US7361263B2, “Water treatment apparatus and method” (Sanyo Electric Co., Ltd., priority 2002, dated 2008).
In brackets after ≈: the same amount, converted by molar mass. Structures can show the parent of a compound that is named as a salt. Where two headings read alike, the source gives them in different places.

Experiments:
[1] = Cytotoxicity (CC50) test, WST-8; type: cell-based, human; conditions: human; electrolyzing time 0 hours; Molt-4 cells, cultured three days
Excerpt: For the measurement of the number of cells, tetrazolium salt WST-8 (Cell Counting Kit-8 available as a kit) was employed as the chromophone. The basic principle of the cytotoxicity (CC50) test is set forth below. WST-8 is reduced by intracellular dehydrogenation enzyme to produce soluble formazan. Since the number of cells and the amount of generated formazan is linearly proportional, the number of cells can be readily measured by directly measuring the absorbancy of formazan at 450 nm. The specific procedure for measurement is set forth below. 180 μl of a culture medium was introduced into each of the wells in the range of rows A-D and columns 3-10 in a 96-well flat microtiter plate for diluting the agent. 240 μl of the sample taken at 0 hours from initiation of electrolysis was added to the well of row A, column 2 in the microtiter plate. 240 μl of the sample taken 2 hours from initiation of electrolysis was added to the well of row B, column 2. 240 μl of the sample taken 4 hours from initiation of electrolysis was added to the well of row C, column 2. 240 μl of the sample taken 6 hours from initiation of electrolysis was added to the well of row D, column 2. To produce respective columns of sample dilutions, samples of 60 μl each was taken from the above-described samples of 240 μl. These samples of 60 μl were sequentially added to the right side well to be sufficiently pipeted. This was conducted up to column 10. Two of U-bottom 96-well microtiter plates for cultivation were prepared, and 200 μl of PBS was applied to all the side-most wells. 100 μl of culture medium was introduced into each of the wells of rows B-G, columns 2-9. 150 μl of culture medium was introduced into the wells of columns 10 and 11. Then, 50 μl of cell suspension solution prepared to 5×10^6 cell/ml was introduced into each of the wells of rows B-G, columns 2-9 and column 11. The wells of column 10 were absent of cells. […] Then, the O.D. was measured at 450 nm and 620 nm using a microplate reader.

[2] = test system: Escherichia coli (coliform bacillus) NIHJ JC-2; assay: Test of antibacterial activity of epirubicin hydrochloride (MIC, small amount broth dilution); type: cell-based; conditions: read-out: minimum inhibitory concentration (MIC)
Description: (§1) The pharmaceutical stock solution disclosed in the standard method was replaced with the samples of the present example for testing. As the culture medium for measuring sensitivity, Cation Supplemented Mueller-Hinton Broth: CSMHB (obtained from EIKEN CHEMICAL CO., LTD.) was employed. This CSMHB was poured 90 μl each into a U-shaped bottom 96-well microplate. Samples taken 0, 2, 4 and 6 hours from initiation of electrolysis described in the above 2 were prepared. A diluted solution of respective samples was prepared in accordance with the standard method. […] The bacilli used in the present example were identical to the two types of bacillus employed in Example 1, i.e. Staphylococcus aureus (staphylococcus bacteria) FDA […] and Escherichia coli (coliform bacillus) NIHJ JC-2. […] This solution was inoculated approximately 0.005 ml in each well of the plate set forth above within 15 minutes from preparation of the solution including bacillus. A medium not containing the agent was poured into 1-2-wells as the control of the development of bacillus. Cultivation was conducted for 18-24 hours at 35° C.

[3] = test system: Staphylococcus aureus (staphylococcus bacteria) FDA 209P; assay: as above; type: cell-based; conditions: for MIC: Staphylococcus aureus, FDA209P, read-out: minimum inhibitory concentration (MIC)
Description: as §1

[4] = Mutagenicity test (umu-test); type: cell-based
Description: The test was conducted according to the instruction manual included in the kit of “Umu-test” from Japan Immunoresearch Laboratories Co., Ltd.

[5] = test system: Escherichia coli (coliform bacillus) NIHJ JC-2; assay: Sterilizing activity test of glutaral (MIC, small amount broth dilution, 60 minutes contact); type: cell-based
Description: (§2) The sterilizing activity of glutaral was evaluated based on MIC measurement by a small amount broth dilution method, which is the standard method of the Japanese Society of Chemotherapy. In the present example, the presence of bacillus by the bacterial number of survivals after a solution including bacillus was brought into contact with glutaral for a predetermined period of time (60 minutes) taking into account the fact that sterilization is neutralized when glutaral is mixed with the culture medium. The pharmaceutical stock solution disclosed in the standard method was replaced with the sample of the present example for testing. As the culture medium for measuring sensitivity, Cation Supplemented Mueller-Hinton Broth: CSMHB (obtained from EIKEN CHEMICAL CO., LTD.) was used. This CSMHB was dividedly-poured 90 μl each into a U-shaped bottom 96-well microplate. This is called Plate 1. The samples taken 0, 2, 4 and 6 hours from initiation of electrolysis described in the above 1. were prepared. In accordance with the method of [Example 1] recited in the additional rule of the standard method, a diluted solution of sterilized phosphate buffer (PBS) was produced for each sample. In the present example, the test was carried out at 1⁄2 the scale cited in the standard method. The containing amount of glutaral in the first tube was approximately 1000 μg/ml titer. The PBS dilution was dividedly-poured 0.1 ml each into another U-shaped microplate. This is called plate 2. In the present example, Staphylococcus aureus (staphylococcus bacteria) […] and Escherichia coli (coliform bacillus) NIHJ JC-2 strain were employed as the bacilli for testing sensitivity. The bacillus to be tested on an agar media cultured overnight was suspended to 0.5 Mc Farland (approximately 10^8 CFU/ml) and diluted by ten times (approximately 10^7 CFU/ml) with sterilized physiologic saline as the solution including bacillus for inoculation. The water to be treated and the solution including bacillus were inoculated and mixed 0.01 ml each in each well of Plate 1 within 15 minutes from preparation of the solution including bacillus. In Plate 1, a culture medium not containing the agent was poured into 1-2 wells as the control of growth of bacillus. At an elapse of 60 minutes from the mixing, 10 μl of the solution of plate 2 was each introduced into the same well of Plate 1. Then, cultivation was conducted for 18 to 24 hours at 35° C. The criteria of Positive Growth (+) and Inhibited Growth (-) after cultivation was determined as set forth below. Positive growth (+) was accepted when cloudiness was identified by the naked eye or a precipitate of at least 1 mm in diameter, or when two or more masses of precipitate, even though the diameter thereof is below 1 mm, was identified. Inhibited growth (-) was accepted when cloudiness by the naked eye was not identified, or when only one precipitate with a diameter below 1 mm was identified.

[6] = test system: Staphylococcus aureus (staphylococcus bacteria) 209P; assay: as above; type: cell-based
Description: as §2

[7] = Gas chromatograph evaluation of decomposition of glutaral by electrolysis; type: physicochemical; conditions: six hours from initiation of electrolysis
[8] = 6 hours from initiation of electrolysis, calculated
[9] = electrolysis for 6 hours or more, from formula value

Work on `COc1cccc2c1C(=O)c1c(O)c3c(c(O)c1C2=O)C[C@@](O)(C(=O)CO)C[C@@H]3O[C@H]1C[C@H](N)[C@@H](O)[C@H](C)O1` [epirubicin hydrochloride] yielded a CC50 at 3 days [1] of 0.066 µg/mL, an MIC ([2]; NIHJJC2, electrolyzing time 0 hours) of over 200 µg/mL and an MIC ([2]; NIHJJC2, electrolyzing time 2 hours) of over 200 µg/mL. The MIC ([2]; NIHJJC2, electrolyzing time 4 hours) was over 200 µg/mL, the MIC ([2]; NIHJJC2, electrolyzing time 6 hours) was over 200 µg/mL and the MIC ([3]; electrolyzing time 0 hours) was 1.56 µg/mL. For the same compound, the MIC ([3]; electrolyzing time 2 hours) was 25 µg/mL, the MIC ([3]; electrolyzing time 4 hours) was over 200 µg/mL and the MIC ([3]; electrolyzing time 6 hours) was over 200 µg/mL. For the same compound, the “relative MIC value (MIC at 0 hour set as 1)” value ([3]; electrolyzing time 0 hours) was 1, the “relative MIC value (MIC at 0 hour set as 1)” value ([3]; electrolyzing time 2 hours) was 1/16 and the “concentration of the tube showing the mutagenicity induction level (fifth tube)” value ([4]; 0 hours from initiation of electrolysis) was 24.7 μ/ml. The “umu-test absorbancy of the first tube (O.D.620 nm)” value ([4]; at all of 0, 2, 4 and 6 hours from initiation of electrolysis) was “exceeded 0.2”, the “umu-test result (positivity / negativity)” value ([4]; at all of 0, 2, 4 and 6 hours from initiation of electrolysis, cut off value approximately 0.18) was “positivity” and the “mutagenicity after the electrolytic process relative to before” value ([4]; lines diluted by three times, 1/3^4) was 1/81.
For `O=CCCCC=O` [glutaral], the “minimum inhibitor concentration obtained from approximation formula 2” value [5, 8] was 4600 µg/mL (≈ 45.9 mM), the “minimum inhibitor concentration relative to before electrolysis” value [5, 9] was “approximately 1/37” and the minimum inhibitor concentration ([5]; electrolyzing time 0 hours) was 31.25 µg/mL (≈ 0.312 mM). The “relative value of the minimum inhibitor concentration (when preceding electrolysis is 1)” value ([5]; electrolyzing time 0 hours) was 1, the minimum inhibitor concentration ([5]; electrolyzing time 2 hours) was 125 µg/mL (≈ 1.25 mM) and the “relative value of the minimum inhibitor concentration (when preceding electrolysis is 1)” value ([5]; electrolyzing time 2 hours) was “¼”. The minimum inhibitor concentration ([5]; electrolyzing time 4 hours) was over 1000 µg/mL, the “relative value of the minimum inhibitor concentration (when preceding electrolysis is 1)” value ([5]; electrolyzing time 4 hours) was < 1/32 and the minimum inhibitor concentration ([5]; electrolyzing time 6 hours) was over 1000 µg/mL. For the same compound, the “relative value of the minimum inhibitor concentration (when preceding electrolysis is 1)” value ([5]; electrolyzing time 6 hours) was < 1/32, the “minimum inhibitor concentration obtained from approximation formula 1” value [6, 8] was 1150 µg/mL (≈ 11.5 mM) and the “minimum inhibitor concentration relative to before electrolysis” value [6, 9] was “approximately 1/18”. For the same compound, the minimum inhibitor concentration ([6]; electrolyzing time 0 hours) was 62.5 µg/mL (≈ 0.624 mM), the “relative value of the minimum inhibitor concentration (when preceding electrolysis is 1)” value ([6]; electrolyzing time 0 hours) was 1 and the minimum inhibitor concentration ([6]; electrolyzing time 2 hours) was 125 µg/mL (≈ 1.25 mM). For the same compound, the “relative value of the minimum inhibitor concentration (when preceding electrolysis is 1)” value ([6]; electrolyzing time 2 hours) was “½”, the minimum inhibitor concentration ([6]; electrolyzing time 4 hours) was 500 µg/mL (≈ 4.99 mM) and the “relative value of the minimum inhibitor concentration (when preceding electrolysis is 1)” value ([6]; electrolyzing time 4 hours) was “⅛”. For the same compound, the minimum inhibitor concentration ([6]; electrolyzing time 6 hours) was over 1000 µg/mL, the “relative value of the minimum inhibitor concentration (when preceding electrolysis is 1)” value ([6]; electrolyzing time 6 hours) was < 1/16 and the “GC peak area (RT 3.14 minutes) relative to sample of 0 hours” value [7] was 1/25.
